Read-outs that look alike come from different tables or passages of the source.
Tests used:
KB-3-1 = assay: Cell survival assay (SRB), KB-3-1; type: cell-based, human
Source text: Cells lines with previously known mechanisms of resistance. […] Res. 8: 207-218,1996); KB-3-1 (parental derived from an epidermoid carcinoma), KB-8.5, KB-V1 (Akiyama S-I, Fojo A, Hanover J A, Pastan I, Gottesman M M. Isolation and genetic characterization of human KB cell lines resistant to multiple drugs. Somatic Cell Mol. Gen., 11: 117-126,1985; Shen D-W, Cardarelli C, Hwang J, Cornwell M, Richert N, Ishii S, Pastan I, Gottesman MM. […] J. Biol. Chem., 261: 7762-7770, 1986); and HL-60 (parental derived from human leukemia) and HL60/AR (McGrath T., Center M. S. Adriamycin resistance in HL60 cells in the absence of detectable P-glycoprotein. Biochem. Res. Commun., 145:1171-1176,1987); A549 and A549.EpoB40 (He L., Yang C.-P.H., Horwitz S. B. Mutations in p-tubulin map to domains involved in regulation of microtubule stability in epothilone-resistant cell lines. Molecular Cancer Therapeutics. 1: 3-10, 2001). HCT-15 human colon carcinoma and DLD-1 human colon carcinoma are obtained from American Tissue Culture Collection. The MX-1W carcinoma is a Wyeth variant orginally obtained as MX-1 breast carcinoma from the National Cancer Institute. Cell lines selected for resistance to Representative Example 129. KB-3-1 cells are selected for resistance to Example 129 by chronically exposing cells to increasing concentrations of Example 129.
2.2. Cell Survival Assay: Standard Pharmacological Test Procedure. The concentration of candidate inhibitor required to inhibit 50% of cell growth (IC50) is done according to previously reported methods. […] Compounds are serially diluted into media as 2× stocks and 100 μl added to cells in duplicate. Compounds are incubated with cells for 3 days. At the end of the incubation period the sulforhodamine B (SRB) assay, which measures protein content as an assessment of cell survival, is performed as described previously (Skehan P, Storeng R, Scudiero D, Monks A, McMahon J, Vistica D, Warren J T, Bokesch H, Kenney S, Boyd MR. New calorimetric cytotoxicity assay for anticancer-drug screening. J Natl Cancer Inst 1990 Jul 4;82(13):1107-12) with some modification as follows. For KB-3-1 cells with 20% FCS, media is gently decanted and replaced with 200 μl of serum-free media mixed with cold 50% TCA for a final concentration of 10% TCA. The plates are incubated for 1 hr at 4° C., followed by washing 5 times in cold distilled water, then air dried overnight. The fixed cells are stained for 10 min with 80 μl of 0.04% SRB solution prepared in 1% glacial acetic acid. Stain is discarded and plates washed 5 times in 1% glacial acetic acid, then air-dried until completely dry. Stained cell product is dissolved in 150 μl of 10 mM Trizma Base and placed on a shaker for 20 minutes until fully dissolved. Absorbance is read on a Victor V multi-label plate reader (Perkin Elmer, Gaithersburg, Md.).

KB-8-5 (MDR1+) = assay: Cell survival assay (SRB), KB-8-5 (MDR1+); settings: for IC50: Homo sapiens
KB-V1 (MDR1++) = assay: Cell survival assay (SRB), KB-V1 (MDR1++); settings: for IC50: Homo sapiens
[1] = Homo sapiens, KB 3-1, KB-3-1 cells (paclitaxel-sensitive parent), read-out: In vitro IC50 (nM) KB-3-1
[2] = MDR1, read-out: In vitro IC50 (nM) KB85
[3] = read-out: In vitro IC50 (nM) KBV1

Row | SMILES | IC50 (KB-3-1; [1]) [nM] | Ratio KB85/KB (KB-8-5 (MDR1+)) | IC50 (KB-8-5 (MDR1+); [2]) [nM] | Ratio KBV1/KB (KB-V1 (MDR1++)) | IC50 (KB-V1 (MDR1++); [3]) [nM] | IC50 (KB-3-1; KB-3-1 parental, Table 8, read-out: KB-3-1 IC50) [nM] | resistance of KB-8-5 cells (KB-8-5 (MDR1+)) [fold] | IC50 (KB-8-5 (MDR1+); MDR1, read-out: KB-8-5 (MDR1+) IC50, nM (N)) [nM] | IC50 (KB-V1 (MDR1++); read-out: KB-V1 (MDR1++) IC50, nM (N)) [nM]
1 | CCOC(=O)/C(C)=C/C(C(C)C)N(C)C(=O)[C@@H](NC(=O)[C@@H](NC)C(C)(C)c1ccccc1)[C@H](C)O (stereo in doubt) [Example 85, N,β,β-trimethyl-L-phenylalanyl-N^1-[(1R,2E)-4-ethoxy-1-isopropyl-3-methyl-4-oxo-2-butenyl]-N^1-methyl-L-allothreoninamide] | 115 | 11.5 | 1330 | 26.0 | ≥ 3000 | – | – | – | –
2 | CNC(C(=O)N[C@H](C(=O)N(C)[C@H](/C=C(\C)C(=O)O)C(C)C)C(C)(C)C)C1(c2ccccc2)CC1 (stereo in doubt) [Example 142, (2E,4S)-2,5-dimethyl-4-(methyl{3-methyl-N-[(2S)-2-(methylamino)-2-(1-phenylcyclopropyl)acetyl]-L-valyl}amino)hex-2-enoic Acid] | 227 | 2.2 | 513 | 13.2 | > 3000 | – | – | – | –
3 | CNC(C(=O)N[C@H](C(=O)N(C)[C@H](/C=C(\C)C(=O)O)C(C)C)C(C)(C)C)C1(c2ccccc2)CC1 (stereo in doubt) [Example 143, (2E,4S)-2,5-dimethyl-4-(methyl{3-methyl-N-[(2R)-2-(methylamino)-2-(1-phenylcyclopropyl)acetyl]-L-valyl}amino)hex-2-enoic Acid] | 27 | 2.1 | 57 | 61.6 | 1660 | – | – | – | –
4 | COc1ccc(C[C@H]2NC(=O)/C=C/C[C@@H]([C@H](C)[C@H]3O[C@@H]3c3ccccc3)OC(=O)[C@H](CC(C)C)OC(=O)[C@H](C)CNC2=O)cc1Cl [Cryptophycin-1] | – | – | – | – | – | 0.0064 ± 0.0045 | – | – | –
5 | CCOC(=O)/C(C)=C/[C@H](C(C)C)N(C)C(=O)[C@@H](NC(=O)[C@@H](NC)C(C)(C)c1cccc(Cl)c1)C(C)(C)C [Example 1a, 3-Chloro-N,β,β-trimethyl-L-phenylalanyl-N^1-[(1S,2E)4-ethoxy-1-isopropyl-3-methyl-4-oxo-2-butenyl]-N^1,3-dimethyl-L-valinamide] | 562 | 3.1 | 1740 | 5.3 | ≥ 3000 | – | – | – | –
6 | CN[C@@H](C(=O)N[C@H](C(=O)N(C)[C@H](/C=C(\C)C(=O)O)C(C)C)C(C)(C)C)C(C)(C)c1cccc(Cl)c1 [Example 3, 3-Chloro-N,β,β-trimethyl-D-phenylalanyl-N^1-[(1S,2E)-3-carboxy-1-isopropyl-2-butenyl]-N^1,3-dimethyl-L-valinamide] | 15.1 | 1.3 | 20 | 76.0 | 1150 | – | – | – | –
7 | CN[C@@H](C(=O)N[C@H](C(=O)N(C)[C@H](/C=C(\C)C(=O)O)C(C)C)C(C)(C)C)C(C)(C)c1ccc(Cl)cc1 [Example 6, 4-Chloro-N,β,β-trimethyl-D-phenylalanyl-N^1-[(1S,2E)-3-carboxy-1-isopropyl-2-butenyl]-N^1,3-dimethyl-L-valinamide] | 8.5 | 2.0 | 17.4 | 162.4 | 1380 | – | – | – | –
8 | CCOC(=O)/C(C)=C/[C@H](C(C)C)N(C)C(=O)[C@@H](NC(=O)[C@@H](NC)C(C)(C)c1cccc(C)c1)C(C)(C)C [Example 7a, N,β,β,3-Tetramethyl-L-phenylalanyl-N^1-[(1S,2E)4-ethoxy-1-isopropyl-3-methyl-4-oxo-2-butenyl]-N^1,3-dimethyl-L-valinamide] | 21.9 | 24.0 | 525 | 110.0 | 2410 | – | – | – | –
9 | CCOC(=O)/C(C)=C/[C@H](C(C)C)N(C)C(=O)[C@@H](NC(=O)[C@H](NC)C(C)(C)c1cccc(C)c1)C(C)(C)C [Example 7b, N,β,β,3-tetramethyl-D-phenylalanyl-N^1-[(1S,2E)-4-ethoxy-1-isopropyl-3-methyl4-oxo-2-butenyl]-N^1,3-dimethyl-L-valinamide] | 263 | 6.5 | 1700 | 11.4 | ≥ 3000 | – | – | – | –
10 | CN[C@@H](C(=O)N[C@H](C(=O)N(C)[C@H](/C=C(\C)C(=O)O)C(C)C)C(C)(C)C)C(C)(C)c1cccc(C)c1 [Example 9, N,β,β,3-Tetramethyl-D-phenylalanyl-N^1-[(1S,2E)-3-carboxy-1-isopropyl-2-butenyl]-N^1,3-dimethyl-L-valinamide] | 7.9 | 2.5 | 19.9 | 56.5 | 447 | – | – | – | –
11 | CCOC(=O)/C(C)=C/[C@H](C(C)C)N(C)C(=O)[C@@H](NC(=O)[C@@H](NC)C(C)(C)c1ccc(C)cc1)C(C)(C)C [Example 10a, N,β,β,4-Tetramethyl-L-phenylalanyl-N^1-[(1S,2E)-4-ethoxy-1-isopropyl-3-methyl4-oxo-2-butenyl]-N^1,3-dimethyl-L-valinamide] | 33.9 | 15.5 | 525 | 52.4 | 1780 | – | – | – | –
12 | CCOC(=O)/C(C)=C/[C@H](C(C)C)N(C)C(=O)[C@@H](NC(=O)[C@H](NC)C(C)(C)c1ccc(C)cc1)C(C)(C)C [Example 10b, N,β,β,4-tetramethyl-D-phenylalanyl-N^1-[(1S,2E)-4-ethoxy-1-isopropyl-3-methyl-4-oxo-2-butenyl]-N^1,3-dimethyl-L-valinamide] | 447 | 3.9 | 1740 | 6.7 | ≥ 3000 | – | – | – | –
13 | CN[C@H](C(=O)N[C@H](C(=O)N(C)[C@H](/C=C(\C)C(=O)O)C(C)C)C(C)(C)C)C(C)(C)c1ccc(C)cc1 [Example 11, N,β,β,4-Tetramethyl-L-phenylalanyl-N^1-[(1S,2E)-3-carboxy-1-isopropyl-2-butenyl]-N^1,3-dimethyl-L-valinamide] | 1.5 | 1.7 | 2.6 | 36.7 | 55 | – | – | – | –
14 | CN[C@@H](C(=O)N[C@H](C(=O)N(C)[C@H](/C=C(\C)C(=O)O)C(C)C)C(C)(C)C)C(C)(C)c1ccc(C)cc1 [Example 12, N,β,β,4-Tetramethyl-D-phenylalanyl-N^1-[(1S,2E)-3-carboxy-1-isopropyl-2-butenyl]-N^1,3-dimethyl-L-valinamide] | 17 | 1.6 | 27.5 | 63.1 | 1070 | – | – | – | –
15 | CCN[C@H](C(=O)N[C@H](C(=O)N(C)[C@H](/C=C(\C)C(=O)O)C(C)C)C(C)(C)C)C(C)(C)c1ccccc1 [Example 32, N-Ethyl-β,β-dimethylphenylalanyl-N^1-[(1S,2E)-3-carboxy-1-isopropyl-2-butenyl]-N^1,3-dimethyl-L-valinamide] | – | 2.6 | – | 64.5 | – | – | – | – | –
16 | CN[C@H](C(=O)N[C@H](C(=O)N(C)[C@H](/C=C(\C)C(=O)NC(CCSC)C(=O)OC)C(C)C)C(C)(C)C)C(C)(C)c1ccccc1 (stereo partly drawn) [Example 144, 2-(4-{[3,3-Dimethyl-2-(3-methyl-2-methylamino-3-phenyl-butyrylamino)-butyryl]-methyl-amino}-2,5-dimethyl-hex-2-enoylamino)-4-methylsulfanyl-butyric Acid Methyl] | – | 14.9 | 55 | – | – | – | – | – | –
17 | CCN[C@H](C(=O)N[C@H](C(=O)N(C)[C@H](/C=C(\C)C(=O)O)C(C)C)C(C)(C)C)C(C)(C)c1ccccc1 [Example 151, N-ethyl-β,β-dimethyl-L-phenylalanyl-N^1-[(1S,2E)-3-carboxy-1-isopropylbut-2-enyl]-N^1,3-dimethyl-L-valinamide] | – | 1.5 | – | 11.3 | – | – | – | – | –
18 | COc1cc2c(c(OC)c1OC)-c1ccc(OC)c(=O)cc1[C@@H](NC(C)=O)CC2 [colchicine, reference compound] | – | – | – | – | – | – | 9.8 | 62.7 | 2440

From patent publication US20040121965A1, “Method of treating resistant tumors” (Wyeth Holdings Corporation, priority 2002, published 2004)
